# Results reported in the supplement of paper PMC9663587.
# Tests used:
# Paclitaxel = compound: CC(=O)O[C@H]1C(=O)[C@@]2(C)[C@H]([C@H](OC(=O)c3ccccc3)[C@]3(O)C[C@H](OC(=O)[C@H](O)[C@@H](NC(=O)c4ccccc4)c4ccccc4)C(C)=C1C3(C)C)[C@]1(OC(C)=O)CO[C@@H]1C[C@@H]2O [Paclitaxel]
# BSJ-03-123 [1] = compound: T1, CC(=O)c1c(C)c2cnc(Nc3ccc(N4CCN(CCOCCOCCOCCNC(=O)COc5cccc6c5C(=O)N(C5CCC(=O)NC5=O)C6=O)CC4)cn3)nc2n(C2CCCC2)c1=O [BSJ-03-123]
# INK128/MLN0128 = compound: CC(C)n1nc(-c2ccc3oc(N)nc3c2)c2c(N)ncnc21 [INK128/MLN0128]
# [2] = compound: CCN1CCN(Cc2ccc(Nc3ncc(F)c(-c4cc(F)c5nc(C)n(C(C)C)c5c4)n3)nc2)CC1
# Neratinib/HKI272 [3] = compound: T2, CCOc1cc2ncc(C#N)c(Nc3ccc(OCc4ccccn4)c(Cl)c3)c2cc1NC(=O)/C=C/CN(C)C [Neratinib/HKI272]
# Volasertib/BI6727 = compound: CC[C@@H]1C(=O)N(C)c2cnc(Nc3ccc(C(=O)N[C@H]4CC[C@H](N5CCN(CC6CC6)CC5)CC4)cc3OC)nc2N1C(C)C [Volasertib/BI6727]
# LEE011/Ribociclib [4] = compound: T3, CN(C)C(=O)c1cc2cnc(Nc3ccc(N4CCNCC4)cn3)nc2n1C1CCCC1 [LEE011/Ribociclib]
# THZ531 = compound: CN(C)C/C=C/C(=O)Nc1ccc(C(=O)N2CCC[C@@H](Nc3ncc(Cl)c(-c4c[nH]c5ccccc45)n3)C2)cc1 [THZ531]
# ABT-737 = compound: CN(C)CC[C@H](CSc1ccccc1)Nc1ccc(S(=O)(=O)NC(=O)c2ccc(N3CCN(Cc4ccccc4-c4ccc(Cl)cc4)CC3)cc2)cc1[N+](=O)[O-] [ABT-737]
# [5] = compound: COc1ccc2c(c1)[C@]1(C[C@H]1c1ccc3c(/C=C/c4ccc(CN5C[C@@H](C)O[C@@H](C)C5)cc4)n[nH]c3c1)C(=O)N2
# Pictilisib/GDC0941 = compound: CS(=O)(=O)N1CCN(Cc2cc3nc(-c4cccc5[nH]ncc45)nc(N4CCOCC4)c3s2)CC1 [Pictilisib/GDC0941]
# Ceritinib/LDK378 = compound: Cc1cc(Nc2ncc(Cl)c(Nc3ccccc3S(=O)(=O)C(C)C)n2)c(OC(C)C)cc1C1CCNCC1 [Ceritinib/LDK378]
# Taselisib/GDC0032 = compound: Cc1nc(-c2cn3c(n2)-c2ccc(-c4cnn(C(C)(C)C(N)=O)c4)cc2OCC3)n(C(C)C)n1 [Taselisib/GDC0032]
# Tivantinib/ARQ197 = compound: O=C1NC(=O)[C@@H](c2cn3c4c(cccc24)CCC3)[C@@H]1c1c[nH]c2ccccc12 [Tivantinib/ARQ197]
# YKL-5-124 = compound: C=CC(=O)Nc1ccc(C(=O)Nc2[nH]nc3c2CN(C(=O)N[C@H](CN(C)C)c2ccccc2)C3(C)C)cc1 [YKL-5-124]; experiment: GR value, 72 h; higher = faster growth (1 = untreated, <0 = killing);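 also: breast cancer and non-malignant breast epithelial lines, nine half-log doses, viable cells counted by Hoechst and LIVE/DEAD dye imaging versus time-zero plates and DMSO controls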
# BSJ-03-123 [6] = compound: T1, BSJ-03-123; experiment: as above
# [7] = compound: CCN1CCN(Cc2ccc(Nc3ncc(F)c(-c4cc(F)c5nc(C)n(C(C)C)c5c4)n3)nc2)CC1; experiment: as above
# Neratinib/HKI272 [8] = compound: T2, Neratinib/HKI272; experiment: as above
# [9] = compound: CCc1cnn2c(NCc3ccc[n+]([O-])c3)cc(N3CCCC[C@H]3CCO)nc12; experiment: as above
# LEE011/Ribociclib [10] = compound: T3, LEE011/Ribociclib; experiment: as above
# 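For GR50, 72 h in this document: breast cancer and non-malignant breast epithelial cell lines, Deep Dye Drop or Dye Drop imaging, nine half-log doses, GR normalized to time-zero plates and DMSO-only controls.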
cell line,measurement,setting,value
MDAMB468,"GR50, 72 h",Paclitaxel,0.00135 µM
same,"GR50, 72 h",BSJ-03-123 [1],1.71 µM
same,"GR50, 72 h",INK128/MLN0128,0.0235 µM
same,"GR50, 72 h",[2],2.34 µM
same,"GR50, 72 h",Neratinib/HKI272 [3],0.158 µM
same,"GR50, 72 h",Volasertib/BI6727,0.0021 µM
same,"GR50, 72 h",LEE011/Ribociclib [4],> 10 µM
same,"GR50, 72 h",THZ531,0.0412 µM
same,"GR50, 72 h",ABT-737,6.03 µM
same,"GR50, 72 h",[5],0.00342 µM
same,"GR50, 72 h",Pictilisib/GDC0941,2.33 µM
same,"GR50, 72 h",Ceritinib/LDK378,0.767 µM
same,"GR50, 72 h",Taselisib/GDC0032,2.35 µM
same,"GR50, 72 h",Tivantinib/ARQ197,0.307 µM
same,GR value,YKL-5-124; 0.001 µM,0.23 GR
same,GR value,YKL-5-124; 0.003162 µM,0.077 GR
same,GR value,YKL-5-124; 0.01 µM,0 GR
same,GR value,YKL-5-124; 0.03162 µM,-0.101 GR
same,GR value,YKL-5-124; 0.1 µM,-0.149 GR
same,GR value,YKL-5-124; 0.3162 µM,-0.177 GR
same,GR value,YKL-5-124; 1 µM,-0.217 GR
same,GR value,YKL-5-124; 3.162 µM,-0.309 GR
same,GR value,YKL-5-124; 10 µM,-0.549 GR
same,GR value,BSJ-03-123 [6]; 0.001 µM,1 GR
same,GR value,BSJ-03-123 [6]; 0.003162 µM,0.923 GR
same,GR value,BSJ-03-123 [6]; 0.01 µM,0.902 GR
same,GR value,BSJ-03-123 [6]; 0.03162 µM,0.806 GR
same,GR value,BSJ-03-123 [6]; 0.1 µM,0.91 GR
same,GR value,BSJ-03-123 [6]; 0.3162 µM,0.771 GR
same,GR value,BSJ-03-123 [6]; 1 µM,0.636 GR
same,GR value,BSJ-03-123 [6]; 3.162 µM,0.476 GR
same,GR value,BSJ-03-123 [6]; 10 µM,-0.0278 GR
same,GR value,[7]; 0.001 µM,0.94 GR
same,GR value,[7]; 0.003162 µM,0.966 GR
same,GR value,[7]; 0.01 µM,0.979 GR
same,GR value,[7]; 0.03162 µM,1.04 GR
same,GR value,[7]; 0.1 µM,1.06 GR
same,GR value,[7]; 0.3162 µM,1.01 GR
same,GR value,[7]; 1 µM,0.811 GR
same,GR value,[7]; 3.162 µM,0.321 GR
same,GR value,[7]; 10 µM,-0.34 GR
same,GR value,Neratinib/HKI272 [8]; 0.0003162 µM,0.947 GR
same,GR value,Neratinib/HKI272 [8]; 0.001 µM,0.97 GR
same,GR value,Neratinib/HKI272 [8]; 0.003162 µM,0.983 GR
same,GR value,Neratinib/HKI272 [8]; 0.01 µM,0.969 GR
same,GR value,Neratinib/HKI272 [8]; 0.03162 µM,0.838 GR
same,GR value,Neratinib/HKI272 [8]; 0.1 µM,0.56 GR
same,GR value,Neratinib/HKI272 [8]; 0.3162 µM,0.257 GR
same,GR value,Neratinib/HKI272 [8]; 1 µM,-0.0811 GR
same,GR value,Neratinib/HKI272 [8]; 3.162 µM,-0.395 GR
same,GR value,[9]; 0.0001 µM,0.988 GR
same,GR value,[9]; 0.0003162 µM,1.01 GR
same,GR value,[9]; 0.001 µM,0.985 GR
same,GR value,[9]; 0.003162 µM,1.03 GR
same,GR value,[9]; 0.01 µM,0.863 GR
same,GR value,[9]; 0.03162 µM,-0.106 GR
same,GR value,[9]; 0.1 µM,-0.255 GR
same,GR value,[9]; 0.3162 µM,-0.339 GR
same,GR value,[9]; 1 µM,-0.412 GR
same,GR value,LEE011/Ribociclib [10]; 0.001 µM,0.985 GR
same,GR value,LEE011/Ribociclib [10]; 0.003162 µM,1.04 GR
same,GR value,LEE011/Ribociclib [10]; 0.01 µM,0.951 GR
same,GR value,LEE011/Ribociclib [10]; 0.03162 µM,1.01 GR
same,GR value,LEE011/Ribociclib [10]; 0.1 µM,1.05 GR
same,GR value,LEE011/Ribociclib [10]; 0.3162 µM,0.965 GR
same,GR value,LEE011/Ribociclib [10]; 1 µM,0.935 GR
same,GR value,LEE011/Ribociclib [10]; 3.162 µM,1 GR
same,GR value,LEE011/Ribociclib [10]; 10 µM,1.02 GR
HCC38,"GR50, 72 h",Paclitaxel,0.00147 µM
same,"GR50, 72 h",BSJ-03-123 [1],0.0453 µM
same,"GR50, 72 h",INK128/MLN0128,0.0191 µM
same,"GR50, 72 h",[2],0.0446 µM
same,"GR50, 72 h",Neratinib/HKI272 [3],3.15 µM
same,"GR50, 72 h",Volasertib/BI6727,0.00822 µM
same,"GR50, 72 h",LEE011/Ribociclib [4],0.537 µM
same,"GR50, 72 h",THZ531,0.177 µM
same,"GR50, 72 h",ABT-737,0.998 µM
same,"GR50, 72 h",[5],0.00325 µM
same,"GR50, 72 h",Pictilisib/GDC0941,6.55 µM
same,"GR50, 72 h",Ceritinib/LDK378,1.83 µM
same,"GR50, 72 h",Taselisib/GDC0032,2.7 µM
same,"GR50, 72 h",Tivantinib/ARQ197,0.309 µM
same,GR value,YKL-5-124; 0.001 µM,0.436 GR
same,GR value,YKL-5-124; 0.003162 µM,0.282 GR
same,GR value,YKL-5-124; 0.01 µM,0.219 GR
same,GR value,YKL-5-124; 0.03162 µM,0.111 GR
same,GR value,YKL-5-124; 0.1 µM,0.0509 GR
same,GR value,YKL-5-124; 0.3162 µM,-0.0003 GR
same,GR value,YKL-5-124; 1 µM,-0.0242 GR
same,GR value,YKL-5-124; 3.162 µM,-0.079 GR
same,GR value,YKL-5-124; 10 µM,-0.393 GR
same,GR value,BSJ-03-123 [6]; 0.001 µM,0.699 GR
same,GR value,BSJ-03-123 [6]; 0.003162 µM,0.719 GR
same,GR value,BSJ-03-123 [6]; 0.01 µM,0.468 GR
same,GR value,BSJ-03-123 [6]; 0.03162 µM,0.463 GR
same,GR value,BSJ-03-123 [6]; 0.1 µM,0.454 GR
same,GR value,BSJ-03-123 [6]; 0.3162 µM,0.419 GR
same,GR value,BSJ-03-123 [6]; 1 µM,0.341 GR
same,GR value,BSJ-03-123 [6]; 3.162 µM,0.306 GR
same,GR value,BSJ-03-123 [6]; 10 µM,-0.0958 GR
same,GR value,[7]; 0.001 µM,0.924 GR
same,GR value,[7]; 0.003162 µM,0.846 GR
same,GR value,[7]; 0.01 µM,0.738 GR
same,GR value,[7]; 0.03162 µM,0.452 GR
same,GR value,[7]; 0.1 µM,0.275 GR
same,GR value,[7]; 0.3162 µM,0.206 GR
same,GR value,[7]; 1 µM,0.122 GR
same,GR value,[7]; 3.162 µM,-0.0767 GR
same,GR value,[7]; 10 µM,-0.335 GR
same,GR value,Neratinib/HKI272 [8]; 0.0003162 µM,1.02 GR
same,GR value,Neratinib/HKI272 [8]; 0.001 µM,1.03 GR
same,GR value,Neratinib/HKI272 [8]; 0.003162 µM,0.987 GR
same,GR value,Neratinib/HKI272 [8]; 0.01 µM,0.96 GR
same,GR value,Neratinib/HKI272 [8]; 0.03162 µM,0.879 GR
same,GR value,Neratinib/HKI272 [8]; 0.1 µM,0.951 GR
same,GR value,Neratinib/HKI272 [8]; 0.3162 µM,0.823 GR
same,GR value,Neratinib/HKI272 [8]; 1 µM,0.846 GR
same,GR value,Neratinib/HKI272 [8]; 3.162 µM,0.456 GR
same,GR value,[9]; 0.0001 µM,0.989 GR
same,GR value,[9]; 0.0003162 µM,1.05 GR
same,GR value,[9]; 0.001 µM,1.05 GR
same,GR value,[9]; 0.003162 µM,1.14 GR
same,GR value,[9]; 0.01 µM,0.761 GR
same,GR value,[9]; 0.03162 µM,-0.374 GR
same,GR value,[9]; 0.1 µM,-0.453 GR
same,GR value,[9]; 0.3162 µM,-0.435 GR
same,GR value,[9]; 1 µM,-0.453 GR
same,GR value,LEE011/Ribociclib [10]; 0.001 µM,0.807 GR
same,GR value,LEE011/Ribociclib [10]; 0.003162 µM,0.769 GR
same,GR value,LEE011/Ribociclib [10]; 0.01 µM,0.692 GR
same,GR value,LEE011/Ribociclib [10]; 0.03162 µM,0.727 GR
same,GR value,LEE011/Ribociclib [10]; 0.1 µM,0.577 GR
same,GR value,LEE011/Ribociclib [10]; 0.3162 µM,0.511 GR
same,GR value,LEE011/Ribociclib [10]; 1 µM,0.532 GR
same,GR value,LEE011/Ribociclib [10]; 3.162 µM,0.4 GR
same,GR value,LEE011/Ribociclib [10]; 10 µM,0.239 GR
